Experimental data from PMC6812191 (Heliyon, 2019).

Key:
Assay type in all cases: cell-based
hERG potassium channel [1] = biological target: hERG potassium channel (Homo sapiens, UniProt Q12809); test: whole-cell patch clamp, tail current inhibition
hERG potassium channel [2] = biological target: hERG potassium channel (Homo sapiens, UniProt Q12809, T623A); test: whole-cell patch clamp, inhibition at […]
hERG potassium channel [3] = biological target: hERG potassium channel (Homo sapiens, UniProt Q12809, S624A); test: whole-cell patch clamp, concentration response
hERG potassium channel [4] = biological target: hERG potassium channel (Homo sapiens, UniProt Q12809, F656A); test: whole-cell patch clamp, inhibition at […]
hERG potassium channel [5] = biological target: hERG potassium channel (Homo sapiens, UniProt Q12809, V625A); test: whole-cell patch clamp, inhibition at […]
hERG potassium channel [6] = biological target: hERG potassium channel (Homo sapiens, UniProt Q12809, Y652A); test: whole-cell patch clamp, inhibition at […]

Sequence of hERG potassium channel (Homo sapiens, UniProt Q12809, V625A) (Q12809 whole entry V625A): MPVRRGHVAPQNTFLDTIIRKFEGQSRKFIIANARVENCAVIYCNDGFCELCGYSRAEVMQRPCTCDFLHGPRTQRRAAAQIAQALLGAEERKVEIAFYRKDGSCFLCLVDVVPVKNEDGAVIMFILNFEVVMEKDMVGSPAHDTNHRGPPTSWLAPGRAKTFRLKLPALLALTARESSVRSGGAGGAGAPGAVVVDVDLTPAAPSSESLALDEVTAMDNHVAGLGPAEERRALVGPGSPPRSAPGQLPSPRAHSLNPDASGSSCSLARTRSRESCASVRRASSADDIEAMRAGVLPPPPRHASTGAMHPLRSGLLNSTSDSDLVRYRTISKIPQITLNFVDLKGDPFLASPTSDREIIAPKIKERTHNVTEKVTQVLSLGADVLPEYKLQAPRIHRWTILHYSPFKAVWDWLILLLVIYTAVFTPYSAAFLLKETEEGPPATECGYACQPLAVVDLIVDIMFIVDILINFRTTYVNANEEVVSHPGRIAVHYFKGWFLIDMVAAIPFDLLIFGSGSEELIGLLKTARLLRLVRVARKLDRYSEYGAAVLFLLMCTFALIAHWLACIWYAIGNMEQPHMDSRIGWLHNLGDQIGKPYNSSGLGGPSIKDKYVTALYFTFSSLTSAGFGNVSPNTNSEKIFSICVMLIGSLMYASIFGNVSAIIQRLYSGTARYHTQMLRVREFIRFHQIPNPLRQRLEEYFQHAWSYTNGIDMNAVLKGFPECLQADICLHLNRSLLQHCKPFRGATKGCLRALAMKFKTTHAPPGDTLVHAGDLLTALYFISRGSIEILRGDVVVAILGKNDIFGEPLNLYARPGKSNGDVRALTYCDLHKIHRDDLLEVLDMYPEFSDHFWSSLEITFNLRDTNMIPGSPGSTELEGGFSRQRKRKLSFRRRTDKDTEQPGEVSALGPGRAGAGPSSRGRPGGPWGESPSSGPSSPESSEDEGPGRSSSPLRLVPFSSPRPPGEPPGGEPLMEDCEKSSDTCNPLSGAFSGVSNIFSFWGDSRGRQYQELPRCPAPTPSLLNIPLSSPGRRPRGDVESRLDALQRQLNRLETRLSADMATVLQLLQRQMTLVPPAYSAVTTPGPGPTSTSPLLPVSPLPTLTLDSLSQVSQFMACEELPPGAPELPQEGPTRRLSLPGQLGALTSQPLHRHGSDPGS
Sequence of hERG potassium channel (Homo sapiens, UniProt Q12809, S624A) (Q12809 whole entry S624A): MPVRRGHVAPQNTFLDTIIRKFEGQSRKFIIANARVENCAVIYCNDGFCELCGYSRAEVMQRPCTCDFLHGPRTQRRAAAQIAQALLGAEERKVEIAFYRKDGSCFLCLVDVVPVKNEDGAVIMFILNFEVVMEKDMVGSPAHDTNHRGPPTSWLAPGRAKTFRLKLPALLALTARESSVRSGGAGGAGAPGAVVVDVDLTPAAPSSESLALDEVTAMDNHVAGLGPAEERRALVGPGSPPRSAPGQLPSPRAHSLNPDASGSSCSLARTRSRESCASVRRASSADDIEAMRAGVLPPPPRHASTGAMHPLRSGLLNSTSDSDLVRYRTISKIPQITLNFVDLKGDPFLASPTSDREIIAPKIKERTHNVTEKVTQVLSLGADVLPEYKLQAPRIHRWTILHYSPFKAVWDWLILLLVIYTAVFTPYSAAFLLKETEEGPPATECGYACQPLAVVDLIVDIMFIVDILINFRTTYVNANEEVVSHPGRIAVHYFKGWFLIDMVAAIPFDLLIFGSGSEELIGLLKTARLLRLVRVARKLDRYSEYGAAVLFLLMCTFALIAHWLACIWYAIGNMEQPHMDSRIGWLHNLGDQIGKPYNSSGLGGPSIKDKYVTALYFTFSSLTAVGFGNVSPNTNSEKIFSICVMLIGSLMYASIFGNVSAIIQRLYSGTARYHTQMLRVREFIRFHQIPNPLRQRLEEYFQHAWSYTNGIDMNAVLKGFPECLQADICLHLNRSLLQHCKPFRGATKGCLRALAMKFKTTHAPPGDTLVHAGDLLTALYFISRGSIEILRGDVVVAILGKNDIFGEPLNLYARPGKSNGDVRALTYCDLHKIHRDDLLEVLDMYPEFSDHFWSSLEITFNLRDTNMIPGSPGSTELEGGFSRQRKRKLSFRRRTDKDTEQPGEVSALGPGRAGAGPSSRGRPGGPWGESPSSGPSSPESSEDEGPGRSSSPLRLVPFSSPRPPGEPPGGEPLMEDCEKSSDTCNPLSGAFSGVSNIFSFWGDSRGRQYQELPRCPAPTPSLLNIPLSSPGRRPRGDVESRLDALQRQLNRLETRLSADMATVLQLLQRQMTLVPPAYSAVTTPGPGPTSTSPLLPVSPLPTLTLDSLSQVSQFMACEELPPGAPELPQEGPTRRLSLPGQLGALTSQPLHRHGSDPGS
Sequence of hERG potassium channel (Homo sapiens, UniProt Q12809) (Q12809 whole entry): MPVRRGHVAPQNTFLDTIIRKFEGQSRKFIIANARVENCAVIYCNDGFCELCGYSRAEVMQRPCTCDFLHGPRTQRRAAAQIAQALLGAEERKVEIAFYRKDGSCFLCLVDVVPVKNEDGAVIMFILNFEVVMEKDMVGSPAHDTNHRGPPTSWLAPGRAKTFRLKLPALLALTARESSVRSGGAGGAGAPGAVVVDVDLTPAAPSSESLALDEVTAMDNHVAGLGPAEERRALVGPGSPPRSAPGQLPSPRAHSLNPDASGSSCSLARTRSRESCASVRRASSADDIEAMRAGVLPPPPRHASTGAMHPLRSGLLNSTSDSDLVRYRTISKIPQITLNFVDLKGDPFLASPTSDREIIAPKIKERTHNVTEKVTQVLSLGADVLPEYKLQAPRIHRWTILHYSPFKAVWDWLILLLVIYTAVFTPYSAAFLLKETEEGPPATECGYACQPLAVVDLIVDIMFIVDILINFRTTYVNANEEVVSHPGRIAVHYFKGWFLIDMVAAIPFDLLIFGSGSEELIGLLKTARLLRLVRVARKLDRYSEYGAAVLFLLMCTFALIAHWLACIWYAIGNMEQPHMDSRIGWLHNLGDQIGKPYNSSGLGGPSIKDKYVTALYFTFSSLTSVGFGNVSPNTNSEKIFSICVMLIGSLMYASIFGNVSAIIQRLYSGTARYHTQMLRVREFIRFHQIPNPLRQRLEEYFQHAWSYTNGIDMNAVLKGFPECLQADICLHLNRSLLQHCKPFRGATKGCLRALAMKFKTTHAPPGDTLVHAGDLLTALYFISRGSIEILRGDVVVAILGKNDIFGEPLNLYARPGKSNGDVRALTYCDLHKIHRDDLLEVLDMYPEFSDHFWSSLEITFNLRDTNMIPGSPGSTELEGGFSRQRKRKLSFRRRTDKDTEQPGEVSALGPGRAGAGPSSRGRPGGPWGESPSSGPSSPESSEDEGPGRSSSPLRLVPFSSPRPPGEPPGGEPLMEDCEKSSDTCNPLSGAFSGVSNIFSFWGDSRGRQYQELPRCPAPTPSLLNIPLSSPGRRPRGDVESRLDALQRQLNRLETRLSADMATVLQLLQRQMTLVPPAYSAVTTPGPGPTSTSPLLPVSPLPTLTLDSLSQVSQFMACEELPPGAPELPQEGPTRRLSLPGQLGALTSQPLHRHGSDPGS
Sequence of hERG potassium channel (Homo sapiens, UniProt Q12809, F656A) (Q12809 whole entry F656A): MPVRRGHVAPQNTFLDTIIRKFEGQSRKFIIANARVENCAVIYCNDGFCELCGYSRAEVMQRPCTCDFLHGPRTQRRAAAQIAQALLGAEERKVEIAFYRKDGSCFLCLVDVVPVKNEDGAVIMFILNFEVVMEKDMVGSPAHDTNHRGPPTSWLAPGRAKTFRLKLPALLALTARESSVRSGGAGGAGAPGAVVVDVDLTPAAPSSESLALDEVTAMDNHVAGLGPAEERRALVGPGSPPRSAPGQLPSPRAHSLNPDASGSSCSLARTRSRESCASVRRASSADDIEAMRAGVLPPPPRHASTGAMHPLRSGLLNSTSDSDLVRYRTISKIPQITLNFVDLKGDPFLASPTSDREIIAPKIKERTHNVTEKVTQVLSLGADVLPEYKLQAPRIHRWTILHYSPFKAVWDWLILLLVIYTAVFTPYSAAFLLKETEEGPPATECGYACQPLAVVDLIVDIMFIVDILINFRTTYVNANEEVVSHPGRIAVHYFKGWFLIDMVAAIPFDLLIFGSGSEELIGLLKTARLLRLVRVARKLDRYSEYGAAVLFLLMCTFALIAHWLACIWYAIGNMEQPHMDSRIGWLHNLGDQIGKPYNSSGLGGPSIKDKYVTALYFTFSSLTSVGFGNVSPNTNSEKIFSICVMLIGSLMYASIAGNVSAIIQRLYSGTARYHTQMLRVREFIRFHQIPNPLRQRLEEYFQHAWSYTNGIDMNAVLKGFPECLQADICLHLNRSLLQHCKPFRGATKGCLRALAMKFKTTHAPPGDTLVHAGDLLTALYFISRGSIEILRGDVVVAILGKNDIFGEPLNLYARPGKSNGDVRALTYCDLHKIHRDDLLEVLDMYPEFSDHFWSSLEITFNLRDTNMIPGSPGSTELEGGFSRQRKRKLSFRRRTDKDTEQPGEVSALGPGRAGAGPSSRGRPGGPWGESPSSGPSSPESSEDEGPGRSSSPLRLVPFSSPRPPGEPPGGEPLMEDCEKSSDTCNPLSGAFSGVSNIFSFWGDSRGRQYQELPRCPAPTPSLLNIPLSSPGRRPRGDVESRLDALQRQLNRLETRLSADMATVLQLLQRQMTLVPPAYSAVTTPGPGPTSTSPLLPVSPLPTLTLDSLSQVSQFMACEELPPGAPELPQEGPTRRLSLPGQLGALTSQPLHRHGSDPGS

Question: What does the source list for `CC1=C(O)C(=O)C=C2C1=CC=C1[C@@]2(C)CC[C@@]2(C)[C@@H]3C[C@](C)(C(=O)O)CC[C@]3(C)CC[C@]12C` [Celastrol]?
Answer: IC50 (hERG potassium channel [1]): 830 nM; inhibition at 1 µM (hERG potassium channel [2]): 36.2 ± 0.4%; IC50 (hERG potassium channel [3]): 4000 ± 300 nM; inhibition at 1 µM (hERG potassium channel [4]): 34.5 ± 1.5%; inhibition at 1 µM (hERG potassium channel [5]): 51.6 ± 4.3%; inhibition at 1 µM (hERG potassium channel [6]): 56.3 ± 1.6%
